The values that follow come from patent publication US12582654B2, “Cyano-substituted pyridine and cyano-substituted pyrimidine compound and preparation method therefor and application thereof” (BEIJING SCITECH-MQ PHARMACEUTICALS LIMITED, priority 2019, dated 2026).

Where only a bound is given, the exact number is not on record here.

Assay [1] has as its target T1, Ba/F3 ETV6-FGFR4-V550L cells (Homo sapiens, UniProt P22455, V550L, cells depend on it).
T1 construct: fused on or other part: N-terminal part of ETV6 (TEL), the oligomerising partner of the fusion; already named as the first entry; P41212 (Transcription factor ETV6)
The experiment in a line: Inhibition of cell proliferation (CCK-8), Ba/F3 ETV6-FGFR4-V550L cells. The format is cell-based. The following applies: 72 hours of incubation, read-out: Ba/F3 ETV6-FGFR4-V550L IC50. The method, then:
(§1) Compounds were assayed for inhibiting cell proliferation, and the specific method was as follows: • 1. Cells were cultured to a logarithmic growth phase, pipetted evenly, transferred to a 15 mL centrifuge tube, and centrifuged at 1000 rpm at room temperature for 4 minutes; • 2. The supernatant was discarded; 5 mL of complete medium was added and pipetted evenly; 10 μL of cell suspension was weighed, mixed well with 10 μL of 0.4% trypan blue, and counted under a cell counter; the proportion of living cells was ensured to be above 90%; • 3. The cell suspension was seeded into a 96-well plate (80 μL of cell suspension per well) according to the conditions shown in Table 5; in the outer 36 wells of the 96-well plate, no cells were added but only sterile water was added; only the inner 60 wells were used for cell assay and control; • 4. 5× compound dilution: the compounds were serially diluted 4-fold to give a total of 9 concentrations; 80-fold overall dilution was completed with complete medium, the resulting concentration was 5 times the final drug concentration, and DMSO concentration was 1.25%; • 5. 20 μL of the corresponding compounds with different concentrations were added to each well of assay wells of the 96-well plate; 20 μL of complete medium was added to positive and negative control wells and shaken well; and the final concentration of DMSO in each well was 0.25%; • 6. After 72 hours of incubation, 10 μL of CCK-8 reagent was added to each well and further incubated at 37° C. for 1-2 hours; and the OD value was read at 450 nm; 7. Cell survival rate (%)=[(As−Ab)/(Ac−Ab)]*100% • As: Assay well (medium containing cells, CCK-8, compound) • Ac: Control well (medium containing cells, CCK-8) • Ab: Blank well (medium without cell and compound, CCK-8) • 8. The values were imported into Graphpad Prism 5 software for IC50 calculation.

A further assay addresses FGFR4 V550L kinase (Homo sapiens, UniProt P22455, V550L). The experiment in a line: Inhibition of FGFR4 V550L mutant kinase activity (ULight-labeled PolyGT, EU665/EU615 reading). The format is biochemical. The following applies: FGFR4 V550L kinase 1 nM, ATP 10 μM, enzymatic reaction 2 hours. The method, then: (§2) Assay of activity of small molecule compounds on inhibiting FGFR4 kinase and FGFR4 V550L mutant kinase. The assay method was as follows:
(§3) 1) Dilution of Compounds:
(§4) In a 96-well plate a, the compounds were serially diluted 3-fold with DMSO to form 11 concentrations, and the 12th concentration was pure DMSO (as a positive control); In a new 96-well plate b, the above solutions were diluted 25-fold with ultrapure water (DMSO concentration was 4%).
(§5) 2) Transferring Compounds to a 384-Well Plate:
(§6) The above solutions of compounds diluted with ultrapure water in the 96-well plate b were pipetted into corresponding wells of a 384-well plate.
(§7) 3) Adding 4× kinase solution: 2.5 μl of the above 4× kinase solutions were pipetted with a multi-channel pipette into corresponding reaction wells of the 384-well plate, and the mixture was mixed well and pre-reacted at room temperature for 5 minutes.
(§8) 4) Adding 2× substrate/ATP mixture: 5 μl of the above 2× substrate/ATP mixtures were pipetted with a multi-channel pipette into corresponding reaction wells of the 384-well plate.
(§9) 5) Negative control: negative control wells were set up in the 384-well plate by adding 2.5 μl of 4× substrate, 2.5 μl of 4× enzyme solution, 2.5 μl of 1× kinase Assay Buffer and 2.5 μl of ultrapure water containing 4% DMSO to each well.
(§10) 6) Centrifuging, mixing well, and reacting at room temperature in the dark for 2 hours.
(§11) 7) Terminating the Enzymatic Reaction:
(§12) 5 μl of the above 4× stop solutions were pipetted into corresponding wells of the 384-well plate, and the mixture was centrifuged, mixed well, and then reacted at room temperature for 5 minutes.
(§13) 8) Development of the Reaction:
(§14) 5 μl of the above 4× detection solutions were pipetted into corresponding wells of the 384-well plate, and the mixture was centrifuged, mixed well, and then reacted at room temperature for 1 hour.
(§15) 9) The 384-well plate was placed into a plate reader, and the signal was detected using the appropriate program.
(§16) 10) Analysis of IC50: Reading of well=10000*EU665 value/EU615 value Inhibition rate=(reading of positive control well−reading of assay well)/(reading of positive control well−reading of negative control well)*100%
(§17) The corresponding IC50 can be calculated by inputting the drug concentrations and corresponding inhibition rates into GraphPad Prism 5 and processing.
Assay Conditions for Screening FGFR4 V550L Kinase Activity Inhibitory Molecule:
The final concentration of FGFR4 V550L kinase in the reaction system was 1 nM, the final concentration of ATP was 10 μM, the final concentration of substrate ULight™-labeled PolyGT was 100 nM, and the time for enzymatic reaction was 2 hours.
The highest final concentration of the compound in the reaction system was 2.5 μM. After seral 3-fold dilution, there were 11 concentrations in total, and the lowest final concentration was 0.042 nM. The final concentration of DMSO was 1%.

Another assay has as its target FGFR4 kinase (Homo sapiens, UniProt P22455). The experiment in a line: Inhibition of FGFR4 kinase activity (ULight-labeled JAK-1 peptide, EU665/EU615 reading). The following applies: FGFR4 kinase 3.85 nM, ATP 100 μM, enzymatic reaction 2 hours. It counts as biochemical. The method, then: as §2, §3, §4, §5, §6, §7, §8, §9, §10, §11, §12, §13, §14, §15, §16, §17
Assay Conditions for Screening FGFR4 Kinase Activity Inhibitory Molecule:
The final concentration of FGFR4 kinase in the reaction system was 3.85 nM, the final concentration of ATP was 100 μM, the final concentration of substrate ULight™-labeled JAK-1 (Tyr1023) Peptide was 100 nM, and the time for enzymatic reaction was 2 hours.
The highest final concentration of the compound in the reaction system was 2.5 μM. After serial 3-fold dilution, there were 11 concentrations in total, and the lowest final concentration was 0.042 nM. The final concentration of DMSO was 1%.

For the next assay, the target named is T2, Ba/F3 ETV6-FGFR4 cells (Homo sapiens, UniProt P22455).
T2 construct: fused on or other part: N-terminal part of ETV6 (TEL), the oligomerising partner that makes the FGFR4 kinase constitutively active; P41212 (Transcription factor ETV6)
T2 sequence (P22455 whole entry, change not shown, the tested form may be a part): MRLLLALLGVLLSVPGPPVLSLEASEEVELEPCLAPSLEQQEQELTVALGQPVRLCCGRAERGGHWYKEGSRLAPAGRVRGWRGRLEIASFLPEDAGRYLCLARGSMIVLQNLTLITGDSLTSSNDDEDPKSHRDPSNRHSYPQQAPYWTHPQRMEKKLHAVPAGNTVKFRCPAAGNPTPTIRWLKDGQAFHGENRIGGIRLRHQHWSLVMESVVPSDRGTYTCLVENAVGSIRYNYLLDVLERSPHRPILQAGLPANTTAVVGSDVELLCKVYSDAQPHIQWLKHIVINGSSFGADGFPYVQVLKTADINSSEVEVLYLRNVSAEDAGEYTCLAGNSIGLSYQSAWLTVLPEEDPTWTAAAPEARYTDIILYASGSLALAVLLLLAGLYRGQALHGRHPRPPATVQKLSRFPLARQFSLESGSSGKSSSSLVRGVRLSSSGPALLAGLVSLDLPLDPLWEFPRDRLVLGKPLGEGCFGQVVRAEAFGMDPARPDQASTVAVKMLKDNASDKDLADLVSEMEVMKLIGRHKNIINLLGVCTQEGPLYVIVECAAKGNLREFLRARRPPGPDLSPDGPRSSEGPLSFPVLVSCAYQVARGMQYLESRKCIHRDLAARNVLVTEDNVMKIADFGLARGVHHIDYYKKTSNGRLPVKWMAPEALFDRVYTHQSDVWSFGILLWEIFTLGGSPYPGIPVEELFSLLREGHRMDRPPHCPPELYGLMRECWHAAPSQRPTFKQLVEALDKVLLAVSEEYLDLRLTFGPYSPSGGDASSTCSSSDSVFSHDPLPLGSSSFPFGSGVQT
The experiment in a line: Inhibition of cell proliferation (CCK-8), Ba/F3 ETV6-FGFR4 cells. The format is cell-based. The note with it: 72 hours of incubation, read-out: Ba/F3 ETV6-FGFR4 IC50. The method, then: as §1

Chain of FGFR4 V550L kinase (P22455 22-802 V550L): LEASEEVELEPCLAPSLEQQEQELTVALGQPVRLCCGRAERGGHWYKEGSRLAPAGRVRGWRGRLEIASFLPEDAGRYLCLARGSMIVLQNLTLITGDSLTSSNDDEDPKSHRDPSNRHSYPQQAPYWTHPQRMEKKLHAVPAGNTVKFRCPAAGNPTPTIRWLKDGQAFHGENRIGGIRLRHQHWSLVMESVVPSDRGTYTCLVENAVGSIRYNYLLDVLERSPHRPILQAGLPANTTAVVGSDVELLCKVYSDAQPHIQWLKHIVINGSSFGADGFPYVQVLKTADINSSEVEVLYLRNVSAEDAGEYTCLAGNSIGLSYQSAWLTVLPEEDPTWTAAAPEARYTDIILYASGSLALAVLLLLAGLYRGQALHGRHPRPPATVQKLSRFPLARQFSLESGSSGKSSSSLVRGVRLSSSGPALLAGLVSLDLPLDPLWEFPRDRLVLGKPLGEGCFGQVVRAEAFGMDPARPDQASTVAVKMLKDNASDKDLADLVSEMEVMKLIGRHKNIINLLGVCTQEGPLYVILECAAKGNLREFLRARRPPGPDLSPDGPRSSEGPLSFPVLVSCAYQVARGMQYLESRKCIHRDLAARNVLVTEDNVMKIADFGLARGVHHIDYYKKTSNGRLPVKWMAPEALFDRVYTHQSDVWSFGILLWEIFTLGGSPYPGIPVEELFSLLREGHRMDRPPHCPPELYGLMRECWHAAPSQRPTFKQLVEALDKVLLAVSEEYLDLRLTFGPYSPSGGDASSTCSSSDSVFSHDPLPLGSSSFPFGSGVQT
T1 sequence (P22455 whole entry V550L, the tested form may be a part): as the sequence (P22455 whole entry, change not shown, the tested form may be a part) above, with V550L counted along it
Chain of FGFR4 kinase (P22455 22-802): as the sequence (P22455 22-802 V550L) above, with L529V counted along it

`C=CC(=O)Nc1cc(N2CCN(C(C)C)CC2)ccc1Nc1ncc(C#N)c(Nc2ccccc2OC(C)C)n1` [Example 37, N-(2-((5-cyano-4-((2-isopropoxyphenyl)amino)pyrimidin-2-yl)amino)-5-(4-isopropylpiperazin-1-yl)phenyl) acrylamide]: the GI50 (in assay [1]; at Ba/F3 ETV6-FGFR4 cells) was at most 10 nM each time. Also, the IC50 against FGFR4 V550L kinase and against FGFR4 kinase was at most 10 nM each time.

With `C=CC(=O)Nc1cc(N2CCN(CC)CC2)ccc1Nc1ncc(C#N)c(Nc2ccc(C3CC3)cc2OC(C)C)n1` [Example 36, N-(2-((5-cyano-4-((4-cyclopropyl-2-isopropoxyphenyl)amino)pyrimidin-2-yl)amino)-5-(4-ethylpiperazin-1-yl)phenyl) acrylamide], the GI50 (in assay [1]; on Ba/F3 ETV6-FGFR4 cells) was 10 to 50 nM in each case. In addition, the IC50 against FGFR4 V550L kinase and at FGFR4 kinase was 10 to 50 nM throughout.

In the case of `C=CC(=O)Nc1cc(N(C)CCN(C)C)c(OC)cc1Nc1ncc(C#N)c(Nc2ccccc2OC(C)C)n1` [Example 55, N-(2-((5-cyano-4-((2-isopropoxyphenyl)amino)pyrimidin-2-yl)amino)-5-((2-(dimethylamino)ethyl)(methyl)amino)-4-methoxyphenyl) acrylamide], the GI50 (in assay [1]; at Ba/F3 ETV6-FGFR4 cells) was at most 10 nM in each case. The IC50 against FGFR4 V550L kinase was at most 10 nM; on FGFR4 kinase, 10 to 50 nM.

For `C=CC(=O)Nc1cc(N2CCC(N(C)CC(C)(C)O)CC2)ccc1Nc1ncc(C#N)c(Nc2ccccc2OC(C)C)n1` [Example 67, N-(2-((5-cyano-4-((2-isopropoxyphenyl)amino)pyrimidin-2-yl)amino)-5-(4-((2-hydroxy-2-methylpropyl) (methyl)amino)piperidin-1-yl)phenyl) acrylamide], the GI50 (in assay [1]; at Ba/F3 ETV6-FGFR4 cells) was at most 10 nM in each case. The concentration for half-maximal inhibition (IC50) against FGFR4 V550L kinase is at most 10 nM; on FGFR4 kinase, 10 to 50 nM.

On to `C=CC(=O)Nc1cc(N2CCC(N3CCC(C)(O)CC3)CC2)ccc1Nc1ncc(C#N)c(Nc2ccccc2OC(C)C)n1` [Example 42, N-(2-((5-cyano-4-((2-isopropoxyphenyl)amino)pyrimidin-2-yl)amino)-5-(4-hydroxy-4-methyl-[1,4′-bipiperidin]-1′-yl)phenyl) acrylamide], for which the GI50 (in assay [1]; at Ba/F3 ETV6-FGFR4 cells) was at most 10 nM each time. For the same compound, the IC50 at FGFR4 V550L kinase and against FGFR4 kinase was at most 10 nM each time.

On to `C=CC(=O)Nc1cc(N2CCN(CC)CC2)ccc1Nc1ncc(C#N)c(Nc2ccc(OC)cc2OC(C)C)n1` [Example 31, N-(2-((5-cyano-4-((2-isopropoxy-4-methoxyphenyl)amino)pyrimidin-2-yl)amino)-5-(4-ethylpiperazin-1-yl)phenyl) acrylamide], for which the GI50 (in assay [1]; at Ba/F3 ETV6-FGFR4 cells) was at most 10 nM throughout. In addition, the IC50 on FGFR4 V550L kinase is 10 to 50 nM; against FGFR4 kinase it was at most 10 nM.

On to `C=CC(=O)Nc1cc(N2CCN(C)CC2)c(C)cc1Nc1ncc(C#N)c(Nc2ccccc2OC(C)C)n1` [Example 7, N-(2-((5-cyano-4-((2-isopropoxyphenyl)amino)pyrimidin-2-yl)amino)-4-methyl-5-(4-methylpiperazin-1-yl)phenyl) acrylamide], for which the GI50 in assay [1] is 10 to 50 nM; on Ba/F3 ETV6-FGFR4 cells, at most 10 nM. The IC50 against FGFR4 V550L kinase is 10 to 50 nM; against FGFR4 kinase, 50 to 100 nM.

With `C=CC(=O)Nc1cc(N2CCC(N3CCN(C)CC3)CC2)ccc1Nc1ncc(C#N)c(Nc2ccc(C(=O)O)cc2OC(C)C)n1` [Example 52, 4-((2-((2-acrylamido-4-(4-(4-methylpiperazin-1-yl)piperidin-1-yl)phenyl)amino)-5-cyanopyrimidin-4-yl)amino)-3-isopropoxybenzoic acid], the GI50 (in assay [1]; on Ba/F3 ETV6-FGFR4 cells) was 100 to 1000 nM each time. Moreover, the half-inhibitory concentration (IC50) against FGFR4 V550L kinase and at FGFR4 kinase was at most 10 nM each time.

As for `C=CC(=O)Nc1cc(N2CCC(N3CCCC3)CC2)c(F)cc1Nc1ncc(C#N)c(Nc2ccccc2OC(C)C)n1` [Example 17, N-(2-((5-cyano-4-((2-isopropoxyphenyl)amino)pyrimidin-2-yl)amino)-4-fluoro-5-(4-(pyrrolidin-1-yl)piperidin-1-yl)phenyl) acrylamide], the GI50 (in assay [1]; on Ba/F3 ETV6-FGFR4 cells) was at most 10 nM throughout. In addition, the 50% inhibitory concentration (IC50) against FGFR4 V550L kinase and on FGFR4 kinase was 10 to 50 nM in each case.

For `C=CC(=O)Nc1cc(N2CCC(N3CCN(C)CC3)CC2)ccc1Nc1ncc(C#N)c(Nc2ccccc2CC(C)C)n1` [Example 79, N-(2-((5-cyano-4-((2-isobutylphenyl)amino)pyrimidin-2-yl)amino)-5-(4-(4-methylpiperazin-1-yl)piperidin-1-yl)phenyl)acrylamide], the GI50 (in assay [1]; on Ba/F3 ETV6-FGFR4 cells) was 10 to 50 nM throughout. Also, the figures for the half-maximal inhibitory concentration (IC50) at FGFR4 V550L kinase and against FGFR4 kinase were 50 to 100 nM and 10 to 50 nM, respectively.

For `C=CC(=O)Nc1cc(N2CCC(N3CCCCC3)CC2)ccc1Nc1ncc(C#N)c(Nc2ccccc2OC(C)C)n1` [Example 4, N-(5-([1,4′-bipiperidin]-1′-yl)-2-((5-cyano-4-((2-isopropoxyphenyl)amino)pyrimidin-2-yl)amino)phenyl) acrylamide], the GI50 (in assay [1]; on Ba/F3 ETV6-FGFR4 cells) was at most 10 nM each time. Besides, the IC50 against FGFR4 V550L kinase is at most 10 nM; against FGFR4 kinase, 10 to 50 nM.

As for `C=CC(=O)Nc1cc(N2CCC(N3CCN(C)CC3=O)CC2)c(F)cc1Nc1ncc(C#N)c(Nc2ccccc2OC(C)C)n1` [Example 48, N-(2-((5-cyano-4-((2-isopropoxyphenyl)amino)pyrimidin-2-yl)amino)-4-fluoro-5-(4-(4-methyl-2-oxopiperazin-1-yl)piperidin-1-yl)phenyl) acrylamide], the GI50 (in assay [1]; at Ba/F3 ETV6-FGFR4 cells) was at most 10 nM in each case. Further, the IC50 against FGFR4 V550L kinase and against FGFR4 kinase was 10 to 50 nM throughout.

`C=CC(=O)Nc1cc(N2CCN(CC)CC2)c(C)cc1Nc1ncc(C#N)c(Nc2ccccc2OC(C)C)n1` [Example 8, N-(2-((5-cyano-4-((2-isopropoxyphenyl)amino)pyrimidin-2-yl)amino)-5-(4-ethylpiperazin-1-yl)-4-methylphenyl) acrylamide]: the GI50 (in assay [1]; on Ba/F3 ETV6-FGFR4 cells) was at most 10 nM each time. The figures for the 50% inhibitory concentration (IC50) on FGFR4 V550L kinase and against FGFR4 kinase were at most 10 nM and 10 to 50 nM, respectively.

For orientation: IC50 means the concentration at which inhibition is half-maximal.
